Tests used:
Format in all cases: cell-based, human
[1] = tested on: breast adenocarcinoma (MCF7) cells; assay: Antiproliferative MTT assay, MCF-7; conditions: for IC50: Homo sapiens, MCF7, 72 h incubation, MTT, mean ± SD
Method: (§1) The human ATCC tumor cell lines breast adenocarcinoma (MCF7), colorectal carcinoma (HT-29), pancreatic ductal adenocarcinoma (CFPAC-1), hepatocellular carcinoma (HepG2), and normal skin fibroblasts (HFF) derived from ATCC (American Type Culture Collection) were cultured in Dulbecco’s Modified Eagle Medium (DMEM) or Minimum Essential Medium (MEM) supplemented with 10% fetal bovine serum (FBS), 2 mM L-glutamine, 100 U/mL penicillin, and 100 µg/mL streptomycin (Lonza, Basel, Switzerland) in a humidified atmosphere with 5% CO2 at 37 °C. For the experiment, carcinoma cell lines and normal human cell lines were seeded in 96-well microtiter plates at a density of 3000 cells per well and 5000 cells per well, respectively, depending on the doubling time of the specific cell line. The test substances were then added at fivefold, tenfold dilutions (0.01 to 100 µM), freshly prepared in the growth medium on the day of testing, and incubated for a further 72 h. After 72 h of incubation, the growth rate of the cells was determined using the MTT assay according to the manufacturer’s guidelines. […] The IC50 values were calculated from the dose–response curves using linear regression analysis. The experiment was performed in tetraplicates in two individual experiments.
(§2) Newly synthesized compounds were evaluated for their cytotoxic activity in vitro against four human cancer cell lines, including human breast adenocarcinoma (MCF-7), ductal pancreatic adenocarcinoma (CFPAC-1), colorectal carcinoma (HT-29), and hepatocellular carcinoma (HepG2), as well as on non-cancerous skin fibroblasts (HFF-1), to check for non-specific toxicity. Furthermore, 5-Fluorouracil (5-FU) was used as a reference drug. The results are expressed as 50% inhibitory concentration (IC50) values and are listed in Table 2, Table 3, Table 4 and Table 5.

[2] = tested on: pancreatic ductal adenocarcinoma (CFPAC-1) cells; assay: Antiproliferative MTT assay, CFPAC-1; conditions: for IC50: 72 h incubation, MTT, mean ± SD; for SI (CFPAC-1): SI = [IC50 HFF]/[IC50 CFPAC-1]
Method: as §1, §2

[3] = tested on: colorectal carcinoma (HT-29) cells; assay: Antiproliferative MTT assay, HT-29; conditions: for IC50: 72 h incubation, MTT, mean ± SD
Method: as §1, §2

[4] = tested on: hepatocellular carcinoma (HepG2) cells; assay: Antiproliferative MTT assay, HepG2; conditions: for IC50: Homo sapiens, HepG2, 72 h, 72 h incubation, MTT, mean ± SD
Method: as §1, §2

[5] = tested on: normal skin fibroblasts (HFF-1); assay: Cytotoxicity MTT assay, normal skin fibroblasts; conditions: 72 h incubation, mean ± SD
Method: as §1, §2

Row | Compound | IC50 [1] [µM] | IC50 [2] [µM] | IC50 ([2]; Homo sapiens, CFPAC-1, 72 h) [µM] | IC50 [3] [µM] | IC50 ([3]; Homo sapiens, HT-29, 72 h) [µM] | IC50 [4] [µM] | SI (MCF-7) ([1]; SI = [IC50 HFF]/[IC50 MCF-7]) | SI (HT-29) ([3]; SI = [IC50 HFF]/[IC50 HT-29]) | SI (HepG2) ([4]; SI = [IC50 HFF]/[IC50 HepG2]) | IC50 [5] [µM] | IC50 ([5]; Homo sapiens, HFF-1, 72 h) [µM] | SI (CFPAC-1) [2]
1 | OCC(c1ccc(F)cc1)n1cc(Cn2ccc3ccccc32)nn1 (centres unmarked) [Compound 27a, 1-((1-(2-Hydroxy-1-(4-fluorophenyl)ethyl)-1H-1,2,3-triazol-4-yl)methyl)-1H-indole] | 51 ± 6.7 | – | 68 ± 12.7 | – | 47 ± 16.9 | 49 ± 2.5 | – | – | – | – | 42 ± 10.5 | 0.6
2 | OC(Cn1cc(Cn2ccc3ccccc32)nn1)c1ccc(F)cc1 (centres unmarked) [Compound 27b, 1-((1-(2-Hydroxy-2-(4-fluorophenyl)ethyl)-1H-1,2,3-triazol-4-yl)methyl)-1H-indole] | > 100 | – | > 100 | – | > 100 | > 100 | – | – | – | – | > 100 | –
3 | OCC(c1ccc(F)cc1)n1cc(Cn2cnc3ccccc32)nn1 (centres unmarked) [Compound 32a, 1-((1-(2-Hydroxy-1-(4-fluorophenyl)ethyl)-1H-1,2,3-triazol-4-yl)methyl)-1H-benzimidazole] | 98 ± 2.8 | – | > 100 | – | > 100 | 74 ± 0.6 | – | – | – | – | > 100 | –
4 | OC(Cn1cc(Cn2cnc3ccccc32)nn1)c1ccc(F)cc1 (centres unmarked) [Compound 32b, 1-((1-(2-Hydroxy-2-(4-fluorphenyl)ethyl)-1H-1,2,3-triazol-4-yl)methyl)-1H-benzimidazole] | > 100 | – | > 100 | – | > 100 | > 100 | – | – | – | – | > 100 | –
5 | OC(Cn1cc(Cn2cnc3ccccc32)nn1)c1ccc(Cl)cc1 (centres unmarked) [Compound 33b, 1-((1-(2-Hydroxy-2-(4-chlorophenyl)ethyl)-1H-1,2,3-triazol-4-yl)methyl)-1H-benzimidazole] | 70 ± 20.5 | – | 69 ± 12.1 | – | > 100 | > 100 | – | – | – | – | 64 ± 6.17 | 0.9

Stronger by IC50 [1], values ahead:

Row | IC50 [1] [µM] | IC50 [2] [µM] | IC50 ([2]; Homo sapiens, CFPAC-1, 72 h) [µM] | IC50 [3] [µM] | IC50 ([3]; Homo sapiens, HT-29, 72 h) [µM] | IC50 [4] [µM] | Compound | SI (MCF-7) ([1]; SI = [IC50 HFF]/[IC50 MCF-7]) | SI (HT-29) ([3]; SI = [IC50 HFF]/[IC50 HT-29]) | SI (HepG2) ([4]; SI = [IC50 HFF]/[IC50 HepG2]) | IC50 [5] [µM] | IC50 ([5]; Homo sapiens, HFF-1, 72 h) [µM] | SI (CFPAC-1) [2]
6 | 1 ± 0.8 | 0.1 ± 0.1 | 0.14 ± 0.1 | 0.2 | 0.23 | 9 ± 1.3 | O=c1[nH]cc(F)c(=O)[nH]1 [Compound 5-FU, 5-Fluorouracil, reference compound] | 0.9 | 4.5 | 0.1 | 0.9 | 0.94 | –
7 | 32 | – | 30 ± 0.6 | – | 31 ± 0.9 | 32 ± 0.2 | OCC(c1ccc(Cl)cc1)n1cc(Cn2ccc3ccccc32)nn1 (centres unmarked) [Compound 28a, 1-((1-(2-Hydroxy-1-(4-chlorophenyl)ethyl)-1H-1,2,3-triazol-4-yl)methyl)-1H-indole] | – | – | – | – | 42 ± 4.6 | 1.4
8 | 35 ± 16.2 | – | 35 ± 19.8 | – | 46 ± 18.4 | 66 ± 2.7 | OC(Cn1cc(Cn2ccc3ccccc32)nn1)c1ccc(Cl)cc1 (centres unmarked) [Compound 28b, 1-((1-(2-Hydroxy-2-(4-chlorophenyl)ethyl)-1H-1,2,3-triazol-4-yl)methyl)-1H-indol] | – | – | – | – | > 100 | >2.9
9 | 21 ± 1.6 | – | 9 ± 3.3 | – | 28 ± 1.9 | 32 ± 3.6 | OCC(c1ccc(C(F)(F)F)cc1)n1cc(Cn2ccc3ccccc32)nn1 (centres unmarked) [Compound 30a, 1-((1-(2-Hydroxy-1-(4-(trifluoromethyl)phenyl)ethyl)-1H-1,2,3-triazol-4-yl)methyl)-1H-indole] | – | – | – | – | 34 ± 1.6 | 3.7
10 | 22 ± 3.4 | – | 27 ± 0.7 | – | 51 ± 15.3 | 65 ± 2.4 | OC(Cn1cc(Cn2ccc3ccccc32)nn1)c1ccc(C(F)(F)F)cc1 (centres unmarked) [Compound 30b, 1-((1-(2-Hydroxy-2-(4-(trifluoromethyl)phenyl)ethyl)-1H-1,2,3-triazol-4-yl)methyl)-1H-indol] | – | – | – | – | 18 ± 0.6 | 0.7
11 | 40 ± 1.8 | – | 34 ± 2.3 | – | 63 ± 9.8 | 50 ± 12.8 | OCC(c1ccc(Cl)cc1)n1cc(Cn2cnc3ccccc32)nn1 (centres unmarked) [Compound 33a, 1-((1-(2-Hydroxy-1-(4-chlorophenyl)ethyl)-1H-1,2,3-triazol-4-yl)methyl)-1H-benzimidazole] | – | – | – | – | > 100 | >2.9

Reference: article PMC11940194, “Synthesis, Antiproliferative Activity, and ADME Profiling of Novel Racemic and Optically Pure Aryl-Substituted Purines and Purine Bioisosteres” (Biomolecules, 2025)
